Results on 2 molecules are retold here after patent US20200061038A1, “THERAPEUTIC AGENT FOR FIBROSIS AND INHIBITOR OF NUCLEAR TRANSLOCATION OF PHOSPHORYLATED SMAD” (NATIONAL UNIVERSITY CORPORATION CHIBA UNIVERSITY, priority 2016, published 2020).

The subject of assay [1] is lactosylceramide synthase. Nature of the assay: Lactosylceramide synthesis activation test. In kind it is cell-based, human. Particulars: HFL1 cells; PPMP 3 μM, NB-DNJ 100 μM applied 30 minutes before TGFβ1 (10 ng/mL) stimulation. As to the method:
The experiment was conducted by referring to Chatterjee S, Pandey A. The Yin and Yang of lactosylceramide metabolism: implications in cell function. Biochim Biophys Acta. 2008 March; 1780 (3); 370-82.
The sample was put through quantitative determination of protein, and then 300 μM of […], 100 μM of uridine diphosphate galactose (UDP-Gal, containing 7.5×10^5 dpm of [^3H] UDP-Gal), and reaction buffer, were added to 50 μL of sample, to a final volume of 100 μL/tube. This reaction sample was incubated for 2 hours at 37° C., and finally 50 mM of KCl and 25 mM of EDTA were added to stop the reaction. Thereafter, lipids were extracted from the sample according to the Bligh-Dyer method, and all lipids were expanded using TLC (chloroform:methanol:water=100:42:6). The separated lipids were stained using iodine gas, silica gel at the same position as the lactosylceramide target was scraped off, and its radiation activity was measured using a liquid scintillation counter (Aloka LSC-5100 manufactured by Hitachi-Aloka Medical), and then the amount of synthesized lactosylceramide was calculated. It should be noted that, for the background sample(control), a sample with zero incubation time was used.
Whether or not TGFβ1 treatment would increase the synthesis of lactosylceramide was examined in vitro. […]

For the next assay, the system named is Smad2/3. Particulars: HFL1 cells; PPMP 3 μM applied 30 minutes before TGFβ1 (10 ng/mL) treatment; over time.
Assay [2] deals with patient's pulmonary fibroblast cells. Nature of the assay: αSMA expression (western blot) in patient's pulmonary fibroblast cells. In kind it is cell-based, human. Particulars: PPMP 0.5 μM, 1.0 μM; NB-DNJ 100 μM, 200 μM; cultured 48 hours. The protocol:
Post-operative lung tissues were obtained from a lung transplant patient who was suffering from a serious case of pleuroparenchymal fibroelastosis.
The lung tissues were shredded, rinsed with phosphate-buffered saline (PBS), and then incubated at 37° C. for 15 minutes under gentle shaking, using 1 mg/ml collagenase type I (Worthington, Lakewood, N.J., USA), 0.5 mg/ml disperse (Life Technologies), 2 U/ml DNase (QIAGEN, Valencia, Calif., USA), 0.1 mg/ml streptomycin, and 100 U/ml penicillin.
The tissues were washed twice in DMEM, and then transferred into an 80-cm^2 culture flask and cultured at 37° C. in 5% CO2.
Cell growth was monitored every week, with the culture medium changed every four days. Once the flask reached confluent cultures, the cells were collected as cells at passage 0, and the cells obtained at passage 3 were used in the experiment as the patient's pulmonary fibroblast cells.
Patient's pulmonary fibroblast cells were cultured under the conditions of 95% air-5% CO2 and 37° C., using a Dulbecco's Modified Eagle Medium (DMEM) containing 10% fetal bovine serum (FBS), 100 μg/mL streptomycin, and 66.7 μg/mL penicillin.
For orientation: Immunoblotting shows a protein as a band on a membrane.

Assay [3] deals with αSMA. In words: αSMA expression (western blot) in TGFβ1-stimulated HFL1 cells. Format: cell-based, human. The conditions noted are these: PPMP 3 μM, NB-DNJ 100 μM applied 30 minutes before TGFβ1 (10 ng/mL), 24 hours. The protocol:
Human pulmonary fibroblast (HFL1) (ATCC CCL-153) cells were cultured under the conditions of 95% air-5% CO2 and 37° C., using a Dulbecco's Modified Eagle Medium (DMEM) containing 10% fetal bovine serum (FBS), 100 μg/mL streptomycin, and 66.7 μg/mL penicillin.
How an increase in lactosylceramide synthesis activity due to TGFβ1 affects the fibrosing of tissues was examined based on the expression level of αSMA, which is a fibrosing marker protein.

Another assay concerns PKCδ. Nature of the assay: Translocation of PKCδ into the cellular membrane in HFL1 cells. Particulars: PPMP 3 μM, Rottlerin 1 μM applied beforehand, two hours after TGFβ1 10 ng/mL. Format: cell-based, human. The protocol:
HFL1 cells were inoculated onto a 3.5-cm glass-bottom dish by 1.0×10^4 cells/dish, and then cultured in 2.0 mL of DMEM containing 10% FBS, to achieve 70% confluence. The cells were washed in HBSS containing 0.1% BSA, and then cultured in DMEM containing 0.1% BSA for 48 hours without serum.
Thereafter, the medium was replaced by a DMEM containing 0.1% BSA, and stimulation was given for a specified period using each reagent (each inhibitor was applied 30 minutes before the stimulant), after which each sample was fixed with 4% paraformaldehyde (PFA) at 4° C. for 15 minutes. Thereafter, as deemed appropriate, the sample was permeabilized (0.3% saponin, room temperature, 1 hour) and blocked (3% BSA, room temperature, 1 hour), with a primary antibody applied overnight at 4° C., and a secondary antibody applied for 1 hour at room temperature. For immunostaining of Smad and phosphorylated Smad, ribonuclease A (RNase, Worthington Biochemical) (200 μg/mL, room temperature, 30 minutes) and propidium iodide (PI, Cayman Chemical) (20 μg/mL, room temperature, 30 minutes) were applied to stain the nucleus, and the stained images were observed using a confocal microscope (FV500 manufactured by Olympus).
In general, activation of PKC is observed in the form of its translocation into the cellular membrane; accordingly, involvement of lactosylceramide was examined using the translocation of PKCδ into the cellular membrane as an indicator.

For a further assay, the system named is Smad2. Nature of the assay: Smad2 nuclear localization (immunofluorescent staining, confocal) in HFL1 cells. Format: cell-based, human. Particulars: pretreatment PPMP 3 μM or NB-DNJ 100 μM, TGFβ1 10 ng/mL, 3 hours. As to the method: For immunostaining of Smad and phosphorylated Smad, ribonuclease A (RNase, Worthington Biochemical) (200 μg/mL, room temperature, 30 minutes) and propidium iodide (PI, Cayman Chemical) (20 μg/mL, room temperature, 30 minutes) were applied to stain the nucleus, and the stained images were observed using a confocal microscope (FV500 manufactured by Olympus).
When localization of Smad2/3 was observed, on the other hand, Smad2/3 accumulated in the nucleus in 3 hours after the single stimulation of TGFβ1 (10 ng/mL).

Assay [4] concerns bleomycin-induced fibrosing of the lung. Nature of the assay: Bleomycin-induced pulmonary fibrosis mouse model: hematoxylin eosin-stained lung slices. Format: in vivo, C57BL/6J mice. Particulars: mice, lungs on 14th day. As to the method: 50 μL of 3 mg/kg bleomycin hydrochloride/saline solution (Nippon Kayaku Co., Ltd.) was administered through the bronchial tubes to C57BL/6J mice (male, 8 to 12 weeks old) under tribromoethanol-ether anesthesia, to prepare mouse models for pulmonary fibrosis. 50 μL of saline solution was administered in the same manner to a control group not treated with bleomycin hydrochloride. Seven, eight and nine days after the administration of bleomycin, 50 μL of 20 mg/kg NB-DNJ/saline solution was administered into the bronchial tubes of the mice under tribromoethanol-ether anesthesia. 50 μL of saline solution was administered into the bronchial tubes to a control group of mice not administered with NB-DNJ. For 7 to 13 consecutive days after the administration ofbleomycin, 0.2 mL of 600 mg/kg NB-DNJ/saline solution was orally administered daily (once a day). As control group mice which were not administrated with NB-DNJ, 0.2 mL of saline solution was orally administered. On the 14th day after the administration of bleomycin, each mouse was subjected to thoracotomy under deep ether anesthesia, and its entire body was perfused with PBS from the left ventricle using a syringe needle, while blood was removed from the lungs through the right ventricle, and the lungs were removed. The lungs were soaked in 4% paraformaldehyde and fixed overnight at 4° C. […]

The test system of assay [5] is αSMA. Nature of the assay: Bleomycin-induced pulmonary fibrosis mouse model: lung αSMA western blot. Format: in vivo, C57BL/6J mice. Particulars: mice; 20 mg/kg NB-DNJ into the bronchial tubes on days 7, 8, 9 after bleomycin; lungs on 14th day. As to the method: 50 μL of 3 mg/kg bleomycin hydrochloride/saline solution (Nippon Kayaku Co., Ltd.) was administered through the bronchial tubes to C57BL/6J mice (male, 8 to 12 weeks old) under tribromoethanol-ether anesthesia, to prepare mouse models for pulmonary fibrosis. 50 μL of saline solution was administered in the same manner to a control group not treated with bleomycin hydrochloride.
Seven, eight and nine days after the administration of bleomycin, 50 μL of 20 mg/kg NB-DNJ/saline solution was administered into the bronchial tubes of the mice under tribromoethanol-ether anesthesia. 50 μL of saline solution was administered into the bronchial tubes to a control group of mice not administered with NB-DNJ.
On the 14th day after the administration of bleomycin, each mouse was subjected to thoracotomy under deep ether anesthesia, and its entire body was perfused with PBS from the left ventricle using a syringe needle, while blood was removed from the lungs through the right ventricle, and the lungs were removed.
Thereafter, the tissues were further pulverized using a homogenizer, and centrifuged at 15000 rpm and 4° C. for 30 minutes.

Method for Smad2/3: HFL1 cells were inoculated onto a six-well plate by 1.0×10^5 cells/well, and then cultured in 2.0 mL of DMEM containing 10% FBS, to achieve 70% confluence. The cells were washed using Hanks' balanced salt solution (HBSS) containing 0.1% bovine serum albumin (BSA) (4.2 mM NaHCO3, 137 mM NaCl, 5.36 mM KCl, 0.4 mM MgSO4.7H2O, 0.34 mM Na2HPO4.12H2O, 5.55 mM glucose, 0.44 mM KH2PO4, 0.72 mM CaCl2.H2O, pH=7.4), and then cultured in a DMEM containing 0.1% BSA for 48 hours without serum. […]
The cells were crushed according to the vortex method, centrifuged under the conditions of 15000 rpm and 4° C. for 30 minutes, and the supernatant was taken as a sample. Quantitative determination of protein was performed according to the Bradford method, and a specified amount of protein was separated by SDS-polyacrylic amide gel electrophoresis. […]
Thereafter, the PVDF film was soaked in an ECL solution and fluorometric detection was performed using an image capture/analysis system (ChemiDocMP System manufactured by Bio-Rad). The detected bands were converted to numerical values using image processing software (ImageJ).

Turning to “1-phenyl-2-hexadecanoyl amino-3-morpholino-1-propanol [PPMP]”, in assay [1], the “activity of the lactosylceramide synthase after TGFβ1 stimulation” value is “suppressed the activity of the lactosylceramide synthase significantly”. For the same molecule, in the assay with Smad2/3, the “phosphorylation levels of Smad2/3” value is given as “did not change the phosphorylation levels of Smad2/3 over time”. Besides, in assay [2], the “expression of αSMA in patient's pulmonary fibroblast cells” value was “the expression of αSMA is suppressed”. The “increase in the αSMA expression level due to TGFβ1” value in the assay on αSMA [3] was “suppressed increase in the αSMA expression level”. The “translocation of PKCδ into the cellular membrane due to TGFβ1” value in the assay on PKCδ was “translocation of PKCδ into the cellular membrane was suppressed”. Besides, the “accumulation of Smad2 in the nucleus due to TGFβ1” value in the assay with Smad2 is on record as “suppressed the accumulation of Smad2 in the nucleus”.
As for `CCCCN1C[C@H](O)[C@@H](O)[C@H](O)[C@H]1CO` [NB-DNJ, N-butyl deoxynojirimycin], the “activity of the lactosylceramide synthase after TGFβ1 stimulation” value in assay [1] was “suppressed the activity of the lactosylceramide synthase significantly”. Further, the “bleomycin-induced fibrosing of the lung, bronchial-tube-administration” value in assay [4] (20 mg/kg NB-DNJ into the bronchial tubes on days 7, 8, 9 after bleomycin) was “suppress the bleomycin-induced fibrosing of the lung”. The “bleomycin-induced fibrosing of the lung, oral administration” value in assay [4] (600 mg/kg NB-DNJ orally once a day, days 7 to 13 after bleomycin) is “suppress the bleomycin-induced fibrosing of the lung”. For the same molecule, the “expression of αSMA in lung in the presence of bleomycin” value with αSMA [5] is on record as “the expression of αSMA is suppressed”. The “expression of αSMA in patient's pulmonary fibroblast cells” value in assay [2] is “the expression of αSMA is suppressed”. Moreover, in the assay with αSMA [3], the “increase in the αSMA expression level due to TGFβ1” value is reported as “suppressed increase in the αSMA expression level”. Also, in the assay with Smad2, the “accumulation of Smad2 in the nucleus due to TGFβ1” value is “suppressed the accumulation of Smad2 in the nucleus”.
